Measurements as given in US20240336564A1, “COMPOUND, RUBBER MIXTURE CONTAINING THE COMPOUND, VEHICLE TIRE WHICH HAS AT LEAST ONE COMPONENT COMPRISING THE RUBBER MIXTURE, PROCESS FOR PREPARING THE COMPOUND, AND USE OF THE COMPOUND AS AN AGING PROTECTION AGENT AND/OR ANTIOZONANT AND/OR COLORANT” (CONTINENTAL REIFEN DEUTSCHLAND GMBH, priority 2021, published 2024).

Test: Measurement of oxidation induction time (OIT) by DSC
Conditions: with liquid polyisoprene LIR-50, isothermal 180° C., O2 atmosphere 50 mL/min, DSC peak; measurement accuracy ±10 min
Method: The compound of formula III) was investigated under laboratory conditions for their potential protective effect as aging stabilizers by measurement of the oxidation induction time.
To this end the compounds of formula III) and 6-PPD in each case together with a polymer (liquid synthetic polyisoprene (IR), LIR-50, Kuraray, weight average molecular weight distribution MW=54 000 g/mol, glass transition temperature Tg=−63° C.) were heated at constant temperature (180° C.) until onset of oxidation (start temperature 35° C., heating to 170° C. at a heating rate of 20 K/min (kelvin per minute), heating to 180° C. at a heating rate of 1 K/min; purge gas: nitrogen (N2), volume flow 50 mL/min). The specimen was isothermally maintained for 5 minutes at 180° C. under an N2 atmosphere and the atmosphere was then switched to an O2 atmosphere (volume flow 50 mL/min).
Oxidation was determined via a peak using DSC (differential scanning calorimetry).
The time in minutes to oxidation was measured.

| SMILES | Oxidation induction time (time to oxidation) [min] |
| --- | --- |
| CC(C)CC(C)Nc1ccc(-c2cc3ccccc3[nH]2)cc1 (centres unmarked) | 121 ± 10 |
| CC(C)CC(C)Nc1ccc(Nc2ccccc2)cc1 (centres unmarked) [Compound 6-PPD, N-(1,3-dimethylbutyl)-N′-phenyl-p-phenylenediamine] | 116 ± 10 |
